Test [1] has as its target T1, RavS^ΔN (Xanthomonas campestris pv. campestris, UniProt Q8P9A6).
T1 sequence (Q8P9A6 352-697): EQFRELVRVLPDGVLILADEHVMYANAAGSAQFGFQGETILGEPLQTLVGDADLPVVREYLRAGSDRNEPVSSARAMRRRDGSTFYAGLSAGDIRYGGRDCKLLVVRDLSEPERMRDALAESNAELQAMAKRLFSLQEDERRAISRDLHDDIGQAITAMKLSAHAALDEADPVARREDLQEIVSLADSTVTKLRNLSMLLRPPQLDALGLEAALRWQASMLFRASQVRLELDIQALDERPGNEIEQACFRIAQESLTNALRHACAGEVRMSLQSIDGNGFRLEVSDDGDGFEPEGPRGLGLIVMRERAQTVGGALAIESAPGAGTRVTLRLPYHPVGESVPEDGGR
The test can be described thus: in vitro autophosphorylation assay. Particulars: 100 μM c-di-GMP, no RavR added. The format is biochemical. How it is done:
(a) c-di-GMP enhances RavS-RavR phosphotransfer in vitro. A total of 5 μM RavS^ΔN was autophosphorylated for 15 min by the addition of 10 μCi [γ-^32P]ATP. A total of 15 μM RavR^ΔEAL or RavR^ΔEAL(D496A) was added and incubated for 30 min at 25°C. A total of 100 μM c-di-GMP was added if necessary. The reactions were terminated with 5× SDS loading buffer before autoradiography. The experiment was repeated three times. (b) Time course analyses of the impact of c-di-GMP on the velocity of RavS-RavR phosphotransfer. The autophosphorylation and phosphotransfer reactions were set as mentioned in (a). Various concentrations of c-di-GMP were added to the reactions and isotopic signals (band intensities) of RavS~P were measured after autoradiography. (c–d) c-di-GMP triggered an increase in RavS-RavR phosphotransfer in a dose-dependent manner. […] (d) The phosphorylated level of RavS^ΔN~P was quantified by ImageJ and the EC50 value was estimated by Origin 8.5 software. […] The interaction between RavS^ΔTrM and various nucleotides, including fl-c-di-GMP, fl-cGMP and fl-c-di-AMP, were measured by microscale thermophoresis (MST). A total of 20 nM fluorescein-labelled nucleotides and increasing concentrations of proteins were incubated and measured by MST. The dissociation constant (Kd) was quantified to estimate the binding affinity. […]

For test [2], the target named is T1, RavS^ΔN. The test can be described thus: in vitro RavS-RavR phosphotransfer assay (RavS~P level by autoradiography). The test is classed as biochemical. As for the experimental part:
(a) c-di-GMP enhances RavS-RavR phosphotransfer in vitro. A total of 5 μM RavS^ΔN was autophosphorylated for 15 min by the addition of 10 μCi [γ-^32P]ATP. A total of 15 μM RavR^ΔEAL or RavR^ΔEAL(D496A) was added and incubated for 30 min at 25°C. A total of 100 μM c-di-GMP was added if necessary. The reactions were terminated with 5× SDS loading buffer before autoradiography. The experiment was repeated three times. (b) Time course analyses of the impact of c-di-GMP on the velocity of RavS-RavR phosphotransfer. The autophosphorylation and phosphotransfer reactions were set as mentioned in (a). Various concentrations of c-di-GMP were added to the reactions and isotopic signals (band intensities) of RavS~P were measured after autoradiography. (c–d) c-di-GMP triggered an increase in RavS-RavR phosphotransfer in a dose-dependent manner. (c) Various concentrations of c-di-GMP (0, 5, 10, 15, 30, 50, 75 and 100 μM) were added to the RavS-RavR phosphotransfer reactions. (d) The phosphorylated level of RavS^ΔN~P was quantified by ImageJ and the EC50 value was estimated by Origin 8.5 software. In (b) and (d), the intensity of each data point is the average from three experimental repeats. (e) c-di-GMP triggered increase in RavS-RavR phosphotransfer is highly specific. […] (f) RavS specifically interacts with fl-c-di-GMP. The interaction between RavS^ΔTrM and various nucleotides, including fl-c-di-GMP, fl-cGMP and fl-c-di-AMP, were measured by microscale thermophoresis (MST). A total of 20 nM fluorescein-labelled nucleotides and increasing concentrations of proteins were incubated and measured by MST. The dissociation constant (Kd) was quantified to estimate the binding affinity. Each experiment was repeated three times.
An in vitro autophosphorylation assay was conducted as described in our previous study. Purified protein was incubated with 10 μM ATP containing 10 μCi [γ-^32P]ATP (PerkinElmer, USA) in the reaction buffer (50 mM Tris-HCl, pH 7.8, 25 mM NaCl, 25 mM KCl, 5 mM MgCl2, 2 mM DTT) for the indicated time at 28°C. If necessary, c-di-GMP was added to the mixture at the same time as ATP. For the phosphoryl transfer assay, purified RR protein or its derivative was added into the reaction mixture containing the phosphorylated HK. The autophosphorylation or phosphoryl transfer reaction was terminated by adding 5× SDS-PAGE loading buffer. Phosphorylated proteins were separated by 12% SDS-PAGE. After electrophoresis, gels were exposed to a phosphor screen (GE Healthcare) and the autoradiographic signals were detected by a Typhoon FLA7000 (GE Healthcare).

These results are taken from article PMC6707612, “Cyclic-di-GMP binds to histidine kinase RavS to control RavS-RavR phosphotransfer and regulates the bacterial lifestyle transition between virulence and swimming” (PLoS Pathogens, 2019).

“And” between values parts separate entries of the source, which are not always exact repeats. Equal values may be shown once.

As for `Nc1nc2c(ncn2[C@@H]2O[C@@H]3COP(=O)(O)O[C@H]4[C@@H](O)[C@H](n5cnc6c(=O)[nH]c(N)nc65)O[C@@H]4COP(=O)(O)O[C@H]3[C@H]2O)c(=O)[nH]1` [c-di-GMP, Cyclic di-GMP], on RavS^ΔN [1], the “effect on RavS^ΔN autophosphorylation (autokinase activity)” value was “does not affect”. Moreover, the EC50 on RavS^ΔN [2] (5 μM RavS^ΔN, 15 μM RavR^ΔEAL, 30 min at 25°C, RavS^ΔN~P level quantified by ImageJ, read-out: median effect concentration (EC50) on RavS-RavR phosphotransfer) is 15.6 µM and ~15.6 µM. The “T50: time that signal intensity of RavS~P decreased to half of the initiation stage” value on RavS^ΔN [2] (15 μM c-di-GMP present, without c-di-GMP 38.2 min) amounted to 16.9 min.
